In one experiment the target is human Gal-1 (hGal-1) (Homo sapiens, UniProt P09382). The experiment in a line: Competitive binding assay: biotinylated hGal-1 to microplate-adsorbed asialofetuin (ASF). The note with it: Activities on hGal-1; binding to ASF-coated plates, 3 hours at 4° C.; mean values; read-out: Gal-1 IC50. The procedure, abridged:
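Plate-adsorbed asialofetuin is incubated 3 h at 4 °C with biotinylated hGal-1, optionally its all-serine-substituted cysteine variant, plus compound dilutions. ABTS color after 1 h streptavidin-peroxidase (80 ng/mL) at 4 °C reports binding. Reported IC50 is a mean across repeat runs.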

In another experiment the target is human Gal-3 (hGal-3) (Homo sapiens (Human), UniProt P17931). The experiment in a line: Competitive binding assay: biotinylated hGal-3 to microplate-adsorbed asialofetuin (ASF). Conditions: Activity on hGal-3; binding to ASF-coated plates, 3 hours at 4° C.; mean values. In short, it runs like this: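 Biotinylated hGal-3 (300-1000 ng/mL) binding to plate-adsorbed asialofetuin, with DMSO-diluted compound added, incubated 3 h at 4 °C. After washing, bound protein detected with streptavidin-peroxidase (80 ng/mL, 1 h, 4 °C) and ABTS substrate, read spectrophotometrically. IC50 given as mean of several measurements.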
Sequence of human Gal-3 (hGal-3) (P17931 whole entry): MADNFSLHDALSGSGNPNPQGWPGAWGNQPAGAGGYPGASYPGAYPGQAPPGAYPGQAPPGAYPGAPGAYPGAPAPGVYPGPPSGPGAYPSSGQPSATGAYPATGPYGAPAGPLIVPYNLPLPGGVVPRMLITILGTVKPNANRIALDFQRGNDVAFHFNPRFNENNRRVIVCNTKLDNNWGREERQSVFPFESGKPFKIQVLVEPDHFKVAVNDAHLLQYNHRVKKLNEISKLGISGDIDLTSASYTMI

Sequence of human Gal-1 (hGal-1) (P09382 2-135 limits assumed): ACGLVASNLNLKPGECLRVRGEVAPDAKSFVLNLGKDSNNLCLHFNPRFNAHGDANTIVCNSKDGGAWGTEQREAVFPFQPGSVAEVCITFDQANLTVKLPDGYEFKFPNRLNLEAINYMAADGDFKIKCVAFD

Broadly, the IC50 is the concentration that inhibits the measured activity by half. With `CO[C@@H]1[C@@H](n2cc(-c3ccc(F)c(F)c3F)nn2)[C@@H](O)[C@@H](CO)O[C@@H]1CC1=NO[C@]2(CC[C@@H](NC(=O)OC(C)(C)C)CC2)C1` [Example 1.42, tert-butyl ((5s,8S)-3-(((2R,3R,4S,5R,6R)-5-hydroxy-6-(hydroxymethyl)-3-methoxy-4-(4-(2,3,4-trifluorophenyl)-1H-1,2,3-triazol-1-yl)tetrahydro-2H-pyran-2-yl)methyl)-1-oxa-2-azaspiro[4.5]dec-2-en-8-yl)carbamate], the figures for the IC50 on human Gal-1 (hGal-1) and at human Gal-3 (hGal-3) were 850 nM and 132 nM, respectively.
In the same order, the values of `CO[C@@H]1[C@@H](n2cc(-c3ccc(C)c(F)c3F)nn2)[C@@H](O)[C@@H](CO)O[C@@H]1CC1=NO[C@]2(CC[C@H](NC(=O)OC(C)(C)C)CC2)C1` [Example 1.43, tert-butyl ((5r,8R)-3-(((2R,3R,4S,5R,6R)-4-(4-(2,3-difluoro-4-methylphenyl)-1H-1,2,3-triazol-1-yl)-5-hydroxy-6-(hydroxymethyl)-3-methoxytetrahydro-2H-pyran-2-yl)methyl)-1-oxa-2-azaspiro[4.5]dec-2-en-8-yl)carbamate] are 1240 nM and 15 nM.
For `CO[C@@H]1[C@@H](n2cc(-c3ccc(C)c(F)c3F)nn2)[C@@H](O)[C@@H](CO)O[C@@H]1CC1=NO[C@]2(CC[C@@H](NC(=O)OC(C)(C)C)CC2)C1` [Example 1.44, tert-butyl ((5s,8S)-3-(((2R,3R,4S,5R,6R)-4-(4-(2,3-difluoro-4-methylphenyl)-1H-1,2,3-triazol-1-yl)-5-hydroxy-6-(hydroxymethyl)-3-methoxytetrahydro-2H-pyran-2-yl)methyl)-1-oxa-2-azaspiro[4.5]dec-2-en-8-yl)carbamate], in that order: 4900 nM and 100 nM.
Take `CO[C@@H]1[C@@H](n2cc(-c3ccc(Cl)c(F)c3F)nn2)[C@@H](O)[C@@H](CO)O[C@@H]1CC1=NO[C@]2(CC[C@H](NC(=O)OC(C)(C)C)CC2)C1` [Example 1.45, tert-butyl ((5r,8R)-3-(((2R,3R,4S,5R,6R)-4-(4-(4-chloro-2,3-difluorophenyl)-1H-1,2,3-triazol-1-yl)-5-hydroxy-6-(hydroxymethyl)-3-methoxytetrahydro-2H-pyran-2-yl)methyl)-1-oxa-2-azaspiro[4.5]dec-2-en-8-yl)carbamate]: the IC50 was 800 nM at human Gal-1 (hGal-1) and 10 nM on human Gal-3 (hGal-3).
Turning to `CO[C@@H]1[C@@H](n2cc(-c3ccc(Cl)c(F)c3F)nn2)[C@@H](O)[C@@H](CO)O[C@@H]1CC1=NO[C@]2(CC[C@@H](NC(=O)OC(C)(C)C)CC2)C1` [Example 1.46, tert-butyl ((5s,8S)-3-(((2R,3R,4S,5R,6R)-4-(4-(4-chloro-2,3-difluorophenyl)-1H-1,2,3-triazol-1-yl)-5-hydroxy-6-(hydroxymethyl)-3-methoxytetrahydro-2H-pyran-2-yl)methyl)-1-oxa-2-azaspiro[4.5]dec-2-en-8-yl)carbamate], the IC50 was determined as 1800 nM at human Gal-1 (hGal-1) and 60 nM at human Gal-3 (hGal-3).
`CO[C@@H]1[C@@H](n2cc(-c3cc(F)c(C)cc3F)nn2)[C@@H](O)[C@@H](CO)O[C@@H]1CC1=NOC2(CCCCC2)C1` [Example 1.47, (2R,3R,4S,5R,6R)-6-((1-oxa-2-azaspiro[4.5]dec-2-en-3-yl)methyl)-4-(4-(2,5-difluoro-4-methylphenyl)-1H-1,2,3-triazol-1-yl)-2-(hydroxymethyl)-5-methoxytetrahydro-2H-pyran-3-ol]: the 50% inhibitory concentration (IC50) on human Gal-1 (hGal-1) stood at 2200 nM; at human Gal-3 (hGal-3) it was 430 nM.
On to `CO[C@@H]1[C@@H](n2cc(-c3ccc(F)c(F)c3F)nn2)[C@@H](O)[C@@H](CO)O[C@@H]1CC1=NOC2(CCC(C(C)(C)O)CC2)C1` (stereo partly drawn) [Example 1.48, (2R,3R,4S,5R,6R)-2-(hydroxymethyl)-6-((8-(2-hydroxypropan-2-yl)-1-oxa-2-azaspiro[4.5]dec-2-en-3-yl)methyl)-5-methoxy-4-(4-(2,3,4-trifluorophenyl)-1H-1,2,3-triazol-1-yl)tetrahydro-2H-pyran-3-ol], for which the half-inhibitory concentration (IC50) at human Gal-1 (hGal-1) came to 2600 nM; on human Gal-3 (hGal-3), 490 nM.
On to `CO[C@@H]1[C@@H](n2cc(-c3ccc(Cl)c(F)c3F)nn2)[C@@H](O)[C@@H](CO)O[C@@H]1CC1=NOC2(CCC(C#N)CC2)C1` (stereo partly drawn) [Example 1.49, 3-(((2R,3R,4S,5R,6R)-4-(4-(4-chloro-2,3-difluorophenyl)-1H-1,2,3-triazol-1-yl)-5-hydroxy-6-(hydroxymethyl)-3-methoxytetrahydro-2H-pyran-2-yl)methyl)-1-oxa-2-azaspiro[4.5]dec-2-ene-8-carbonitrile], for which the concentration for half-maximal inhibition (IC50) on human Gal-1 (hGal-1) stood at 1200 nM; at human Gal-3 (hGal-3) it was 110 nM.
On to `CO[C@@H]1[C@@H](n2cc(-c3ccc(F)c(F)c3F)nn2)[C@@H](O)[C@@H](CO)O[C@@H]1CC1=NOC2(CCC(C#N)CC2)C1` (stereo partly drawn) [Example 1.50, 3-(((2R,3R,4S,5R,6R)-5-hydroxy-6-(hydroxymethyl)-3-methoxy-4-(4-(2,3,4-trifluorophenyl)-1H-1,2,3-triazol-1-yl)tetrahydro-2H-pyran-2-yl)methyl)-1-oxa-2-azaspiro[4.5]dec-2-ene-8-carbonitrile], for which the values for the concentration for half-maximal inhibition (IC50) on human Gal-1 (hGal-1) and at human Gal-3 (hGal-3) were 570 nM and 160 nM, respectively.
Take `CO[C@@H]1[C@@H](n2cc(-c3ccc(C)c(F)c3F)nn2)[C@@H](O)[C@@H](CO)O[C@@H]1CC1=NOC2(CCC(C#N)CC2)C1` (stereo partly drawn) [Example 1.51, 3-(((2R,3R,4S,5R,6R)-4-(4-(2,3-difluoro-4-methylphenyl)-1H-1,2,3-triazol-1-yl)-5-hydroxy-6-(hydroxymethyl)-3-methoxytetrahydro-2H-pyran-2-yl)methyl)-1-oxa-2-azaspiro[4.5]dec-2-ene-8-carbonitrile]: the 50% inhibitory concentration (IC50) on human Gal-1 (hGal-1) came out at 1900 nM; on human Gal-3 (hGal-3), 100 nM.
For `CO[C@@H]1[C@@H](n2cc(-c3ccc(F)c(F)c3F)nn2)[C@@H](O)[C@@H](CO)O[C@@H]1CC1=NO[C@]2(CC[C@H](C(C)(C)O)CC2)C1` [Example 1.52, (2R,3R,4S,5R,6R)-2-(hydroxymethyl)-6-(((5r,8R)-8-(2-hydroxypropan-2-yl)-1-oxa-2-azaspiro[4.5]dec-2-en-3-yl)methyl)-5-methoxy-4-(4-(2,3,4-trifluorophenyl)-1H-1,2,3-triazol-1-yl)tetrahydro-2H-pyran-3-ol], in that order: 2800 nM and 260 nM.
For `CO[C@@H]1[C@@H](n2cc(-c3ccc(F)c(F)c3F)nn2)[C@@H](O)[C@@H](CO)O[C@@H]1CC1=NO[C@]2(CC[C@@H](C(C)(C)O)CC2)C1` [Example 1.53, (2R,3R,4S,5R,6R)-2-(hydroxymethyl)-6-(((5s,8S)-8-(2-hydroxypropan-2-yl)-1-oxa-2-azaspiro[4.5]dec-2-en-3-yl)methyl)-5-methoxy-4-(4-(2,3,4-trifluorophenyl)-1H-1,2,3-triazol-1-yl)tetrahydro-2H-pyran-3-ol], in that order: 1200 nM and 270 nM.
On to `CO[C@@H]1[C@@H](n2cc(-c3ccc(C)c(F)c3F)nn2)[C@@H](O)[C@@H](CO)O[C@@H]1CC1=NOC2(CCC(C(C)(C)O)CC2)C1` (stereo partly drawn) [Example 1.54, (2R,3R,4S,5R,6R)-4-(4-(2,3-difluoro-4-methylphenyl)-1H-1,2,3-triazol-1-yl)-2-(hydroxymethyl)-6-((8-(2-hydroxypropan-2-yl)-1-oxa-2-azaspiro[4.5]dec-2-en-3-yl)methyl)-5-methoxytetrahydro-2H-pyran-3-ol], for which the IC50 on human Gal-1 (hGal-1) was 5400 nM; on human Gal-3 (hGal-3), 200 nM.
In the same order, the values of `CO[C@@H]1[C@@H](n2cc(-c3ccc(Cl)c(F)c3F)nn2)[C@@H](O)[C@@H](CO)O[C@@H]1CC1=NOC2(CCC(C(C)(C)O)CC2)C1` (stereo partly drawn) [Example 1.55, (2R,3R,4S,5R,6R)-4-(4-(4-chloro-2,3-difluorophenyl)-1H-1,2,3-triazol-1-yl)-2-(hydroxymethyl)-6-((8-(2-hydroxypropan-2-yl)-1-oxa-2-azaspiro[4.5]dec-2-en-3-yl)methyl)-5-methoxytetrahydro-2H-pyran-3-ol] are 4400 nM and 400 nM.
For the compound `CO[C@@H]1[C@@H](n2cc(-c3ccc(C)c(F)c3F)nn2)[C@@H](O)[C@@H](CO)O[C@@H]1CC1=NO[C@]2(CC[C@@H](C#N)CC2)C1` [Example 1.56, (5s,8S)-3-(((2R,3R,4S,5R,6R)-4-(4-(2,3-difluoro-4-methylphenyl)-1H-1,2,3-triazol-1-yl)-5-hydroxy-6-(hydroxymethyl)-3-methoxytetrahydro-2H-pyran-2-yl)methyl)-1-oxa-2-azaspiro[4.5]dec-2-ene-8-carbonitrile], the IC50 was 3600 nM at human Gal-1 (hGal-1) and 120 nM on human Gal-3 (hGal-3).
As for `CO[C@@H]1[C@@H](n2cc(-c3ccc(C)c(F)c3F)nn2)[C@@H](O)[C@@H](CO)O[C@@H]1CC1=NO[C@]2(CC[C@H](C#N)CC2)C1` [Example 1.57, (5r,8R)-3-(((2R,3R,4S,5R,6R)-4-(4-(2,3-difluoro-4-methylphenyl)-1H-1,2,3-triazol-1-yl)-5-hydroxy-6-(hydroxymethyl)-3-methoxytetrahydro-2H-pyran-2-yl)methyl)-1-oxa-2-azaspiro[4.5]dec-2-ene-8-carbonitrile], the results for the half-inhibitory concentration (IC50) at human Gal-1 (hGal-1) and at human Gal-3 (hGal-3) were 530 nM and 41 nM, respectively.
For `CO[C@@H]1[C@@H](n2cc(-c3ccc(F)c(F)c3F)nn2)[C@@H](O)[C@@H](CO)O[C@@H]1CC1=NO[C@]2(CC[C@@H](C#N)CC2)C1` [Example 1.58, (5s,8S)-3-(((2R,3R,4S,5R,6R)-5-hydroxy-6-(hydroxymethyl)-3-methoxy-4-(4-(2,3,4-trifluorophenyl)-1H-1,2,3-triazol-1-yl)tetrahydro-2H-pyran-2-yl)methyl)-1-oxa-2-azaspiro[4.5]dec-2-ene-8-carbonitrile], the 50% inhibitory concentration (IC50) turned out to be 640 nM on human Gal-1 (hGal-1) and 110 nM on human Gal-3 (hGal-3).

For the origin of these results see patent US20230295182A1, “SPIRO DERIVATIVES OF ALPHA-D-GALACTOPYRANOSIDES” (Idorsia Pharmaceuticals Ltd, priority 2020, published 2023).
